According to US20200368336A1, “METHOD FOR PREPARING PERSONALIZED CANCER VACCINE” (SHANGHAI JENOMED BIOTECH CO., LTD., priority 2017, published 2020):

Tested on: mouse MHC molecule (MHC class I molecules)
Experiment: predicted affinity of short peptide chain to mouse MHC molecule (correlation analysis software)
Details: mutant vs wild-type
Method: The tumor neoantigen of mice were analyzed by the following methods: mouse H-2 typing software was used to classify mouse H-2 molecules, and using software such as Sentieon TNscope, the DNA exome sequencing sequence of the peripheral blood mononuclear cells of cancer-bearing mice was used as a control to isolate tumor neoantigen from the sequencing sequence of CTC DNA exome of cancer-bearing mice, and the correlation analysis software was used to predict the affinity of the short peptide chain tumor neoantigen and its corresponding wild-type short peptide chain to the mouse MHC molecule.

For “KAIRNVLII [preferred tumor neoantigen peptide screened from CTC of cancer-bearing mice]”, the “affinity of neoantigen higher than that of corresponding wild-type short peptide chain” value was “about 556 times”.
